Laboratory results: patent US11466028B2, “Fused 1,4-oxazepines as BET protein degraders” (THE REGENTS OF THE UNIVERSITY OF MICHIGAN, priority 2016, dated 2022)

Assays:
[1] = test system: MDA-MB-468; test: WST-8 cell growth inhibition assay, MDA-MB-468; assay type: cell-based; details: Homo sapiens, WST-8, Table 6
Protocol: (§1) Cpd. Nos. 7 and 18 were tested in various triple-negative breast cancer cell lines using the WST-8 cell growth assay.

[2] = test system: MDA-MB-474; test: WST-8 cell growth inhibition assay, MDA-MB-474; assay type: cell-based; details: WST-8, Table 6
Protocol: as §1

[3] = test system: MDA-MB-453; test: WST-8 cell growth inhibition assay, MDA-MB-453; assay type: cell-based; details: Homo sapiens, WST-8, Table 6
Protocol: as §1

[4] = test system: RS4;11 xenograph tumors; test: RS4;11 xenograft model; assay type: in vivo, SCID mice; details: for tumor regression in RS4;11 xenograph tumors: SCID mice
Protocol: Cpd. Nos. 7 and 11 were dissolved in 10% PCP [10% PEG400 (Sigma), 3% Cremophor (Sigma), and 87% PBS (Gibco)]. The pH of the drug solutions were checked before use and adjusted with 0.5N NaOH to be between pH 6.5 and 8.0 for IV (intravenous) administration.
RS4;11 cells were maintained at 37° C., 95% air, 5% carbon dioxide in Improved MEM (Richter's Mod.) supplemented with 10% Fetal Bovine Serum, 100 units/ml of penicillin and 100 units/ml of streptomycin (GIBCO™, Invitrogen Corp.) and passaged twice weekly.
Tumor cells for xenografts were harvested with Trypsin (0.05%)-EDTA (0.53 mM) (GIBCO™, Invitrogen Corp.), growth medium added and cells placed on ice. Cells were washed once with 1×PBS (GIBCO™, Invitrogen Corp.) and re-suspended in PBS. After washing in PBS, cells were re-suspended in an ice cold mixture of 1:1 PBS and Matrigel (BD Biosciences, Invitrogen Corp.) for a final Matrigel protein concentration of 5 mg/ml. Cells at 5×10^6 cells in 0.1 ml were injected subcutaneously (s.c.) into the flank region of each mouse using a 25 gauge needle. All tumors were inoculated into SCID mice (strain:236) C.B-17 SCID, Charles River.
The size of tumors growing in the mice was measured in two dimensions using calipers. Tumor volume (mm^3)═(A×B^2)/2 where A and B are the tumor length and width (in mm), respectively. During treatment, tumor volume and body weight were measured three times a week. After the treatment was stopped, tumor volume and body weight was measured at least once a week.
Tumors were not allowed to exceed 10% of the animals total body weight. If an animal had two or more tumors the total weight of all tumors were not allowed to exceed 10% of the animal's total body weight. At the end of the experimental period or when tumor size approached 10% of the total body weight, the animal was euthanized.
Before treatment began, tumors were allowed to grow to 100-200 mm^3 in volume, at which point the blood vessel supplies to the tumor should have been well established. Mice with tumors within acceptable size range were randomized into treatment groups of seven mice. Cpd. Nos. 7 and 11 were given i.v. at 10 mg/kg at days 1,3, and 5 per week for two weeks. The Control group received vehicle alone. Cpd. Nos. 16, 18, 22 and 48 were given i.v. at 5 mg/kg at days 1, 3, and 5 per week for two weeks. The Control group received vehicle alone.
(§2) Representative Compounds of the Disclosure were tested in the RS4;11 and other xenograph models using similar techniques. […] No. 22 in the MDA-MB-231 TNBC model.

[5] = test system: MDA-MB-436; test: WST-8 cell growth inhibition assay, MDA-MB-436; assay type: cell-based; details: Homo sapiens, WST-8, Table 6
Protocol: as §1

[6] = test system: MDA-MB-157; test: WST-8 cell growth inhibition assay, MDA-MB-157; assay type: cell-based; details: Homo sapiens, WST-8, Table 6
Protocol: as §1

[7] = test system: HBL100; test: WST-8 cell growth inhibition assay, HBL100; assay type: cell-based; details: Homo sapiens, HBL-100; WST-8, Table 6
Protocol: as §1

[8] = test system: MOLM-13; test: CellTiter-Glo cell growth inhibition, MOLM-13; assay type: cell-based; details: Homo sapiens, MOLM-13, 96 h, 4 days, Table 4, read-out: MOLM-13 IC50
Protocol: (§3) Cell growth inhibitory activity of representative Compounds of the Disclosure was determined using the CellTiter-Glo® Luminescent Cell Viability Assay. Cells were seeded in 384-well white opaque cell culture plates at a density of 2,000 cells/well with serially diluted compounds and incubated at 37° C. in an atmosphere of 95% air and 5% CO2 for 4 days. Cell viability was determined using the CellTiter-Glo® Luminescent Cell Viability Assay Kit (Promega, Madison, Wis.) according to the manufacture's instruction. Briefly, a volume of CellTiter-Glo® Reagent equal to the volume of cell culture medium was added to each well, and then the plates were incubated at room temperature for 10-20 minutes. The luminescent signal was measured using a Tecan Infinite M1000 multimode microplate reader (Tecan, Morrisville, N.C.). The half maximal inhibitory concentration (IC50) was calculated using the GraphPad Prism 5 software (GraphPad Software, La Jolla, Calif.).
(§4) Cpd. Nos. 18 and 19 were tested in various leukemia cell lines using the CellTiter-Glo® Luminescent Cell Viability Assay as described in Example 35.

[9] = test system: MDA-MB-231; test: CellTiter-Glo cell growth inhibition, MDA-MB-231; assay type: cell-based; details: Homo sapiens, MDA-MB-231, 96 h, 4 days, Table 4
Protocol: as §3

[10] = test system: MDA-MB-231; test: WST-8 cell growth inhibition assay, MDA-MB-231; assay type: cell-based; details: Homo sapiens, WST-8, Table 6
Protocol: as §1

[11] = test system: RS4;11; test: CellTiter-Glo cell growth inhibition, RS4;11; assay type: cell-based; details: Homo sapiens, RS4-11, 96 h, 4 days, Table 4, read-out: RS-4, 11 IC50
Protocol: as §3, §4

[12] = test system: MDA-MB-468 TNBC; test: MDA-MB-468 TNBC model; assay type: in vivo; details: FIG. 11
Protocol: as §2

[13] = test system: MV4;11 xenograph; test: MV4;11 xenograph model; assay type: in vivo
Protocol: as §2

[14] = test system: MDA-MB-231 TNBC; test: MDA-MB-231 TNBC model; assay type: in vivo; details: FIG. 12
Protocol: as §2

[15] = test system: WHIM24 breast cancer PDX; test: WHIM24 breast cancer PDX model; assay type: in vivo; details: FIG. 10
Protocol: as §2

IC50 [1] [nM]	IC50 [2] [nM]	IC50 [3] [nM]	IC50 [5] [nM]	IC50 [6] [nM]	IC50 [8] [nM]	IC50 [9] [nM]	IC50 [10] [nM]	IC50 [11] [nM]	Structure (SMILES)	tumor regression in RS4;11 xenograph tumors ([4]; i.v. 10 mg/kg at days 1, 3, 5 per week for two weeks, FIG. 3)	IC50 [7] [nM]	tumor regression in the MDA-MB-468 TNBC model [12]	tumor regression in RS4;11 xenograph tumors ([4]; i.v. 5 mg/kg at days 1, 3, 5 per week for two weeks, FIG. 4)	tumor regression in the RS4;11 xenograph model ([4]; every other day dosing schedule, FIG. 6)	tumor regression in the RS4;11 xenograph model ([4]; single dose or weekly dosing schedule, FIG. 7)	tumor regression in the MV4;11 xenograph model ([13]; FIG. 8)	tumor regression in the MV4;11 xenograph model ([13]; FIG. 9)	tumor regression in the MDA-MB-231 TNBC model [14]	tumor regression in the WHIM24 breast cancer PDX model [15]
2.46 ± 0.07	1.09 ± 0.06	1.02 ± 0.03	2.24 ± 0.3	0.29 ± 0.02	0.7	0.8	1.2 ± 0.13	0.03	Cc1nnc2n1-c1sc(C#Cc3cnn(CCCCNc4cccc5c4C(=O)N(C4CCC(=O)NC4=O)C5=O)c3)c(Cc3ccccc3)c1CO[C@H]2C (stereo partly drawn) [Cpd. No. 7, 4-((4-(4-(((S)-3-benzyl-6,9-dimethyl-4H,6H-thieno[2,3-e][1,2,4]triazolo[3,4-c][1,4]oxazepin-2-yl)ethynyl)-1H-pyrazol-1-yl)butyl)amino)-2-(2,6-dioxopiperidin-3-yl)isoindoline-1,3-dione]	induce tumor regression	1.7 ± 0.15	–	–	–	–	–	–	–	–
–	–	–	–	–	0.85	< 0.015	–	0.11	Cc1nnc2n1-c1sc(C#Cc3cnn(CCCC#Cc4cccc5c4CN(C4CCC(=O)NC4=O)C5=O)c3)c(Cc3ccccc3)c1COC2 (stereo not shown) [Cpd. No. 22, 3-(4-(5-(4-((3-benzyl-9-methyl-4H,6H-thieno[2,3-e][1,2,4]triazolo[3,4-c][1,4]oxazepin-2-yl)ethynyl)-1H-pyrazol-1-yl)pent-1-yn-1-yl)-1-oxoisoindolin-2-yl)piperidine-2,6-dione]	–	–	induces tumor regression	induce tumor regression	induces tumor regression	induces tumor regression	induces tumor regression	induce tumor regression	induces tumor regression	induces tumor regression
